# BindingDB's records for patent US20240382465 (Zhejiang Hisun Pharmaceutical, 2024)
# Biological target: T1, UDP-3-O-acyl-N-acetylglucosamine deacetylase (Pseudomonas aeruginosa (strain ATCC 15692 / DSM 22644 / CIP 104116 / JCM 14847 / LMG 12228 / 1C / PRS 101 / PAO1), UniProt P47205)
# T1 sequence (P47205 whole entry): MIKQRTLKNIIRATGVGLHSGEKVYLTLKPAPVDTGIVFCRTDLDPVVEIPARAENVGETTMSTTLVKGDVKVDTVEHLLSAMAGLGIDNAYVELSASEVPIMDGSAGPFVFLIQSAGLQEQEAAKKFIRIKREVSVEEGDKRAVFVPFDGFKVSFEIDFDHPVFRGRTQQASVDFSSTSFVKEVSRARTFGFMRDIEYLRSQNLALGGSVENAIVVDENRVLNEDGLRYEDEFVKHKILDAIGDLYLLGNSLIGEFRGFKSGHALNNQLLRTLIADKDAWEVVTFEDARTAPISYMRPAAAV
# Experiment: LpxC Enzymatic Activity Assay
# Description: The experimental procedure is briefly described as follows: The test compound was first dissolved in DMSO to prepare a 10 mM stock solution. The reaction was carried out in a 96-well microplate. First, 20 μL of recombinant Pseudomonas aeruginosa LpxC (purchased from Signalway Antibody, product number AP74647-2) was added to each well, with a final concentration of 5 nM. 5 μL of the compound to be tested was then added, and the compound was diluted 4 times to 8 concentration points with a concentration range of 0.61-10,000 nM. 5 μL of LpxC substrate UDP-3-O—(R-3-hydroxydecanoyl)-GlcNAc (purchased from Biosynth Carbosynth, product number: mu75071) was added, with a final concentration of the substrate of 10 μM. The plate was incubated at 25° C. for 120 minutes. Then 20 μL of 2.0 mg/mL fluorescamine (purchased from sigmaaldrich, product number: F9015, solvent: 1:1 dimethylformamide/acetonitrile) was added to the reaction system, and mixed well for 10 minutes of reaction. Finally, 50 μL of 200 mM sodium phosphate buffer (pH 8.0) was added to terminate the reaction. Reading was carried out using a microplate reader (BMG), and the excitation and emission wavelengths were 390 and 495 nm respectively.
row,Compound,IC50 [nM]
1,"C[C@H](O)c1nccn1Cc1cc(-c2ccc(C#Cc3ccc(N4CCN(C)CC4)cc3)cc2)on1 [US20240382465, Example 65]",64.6
2,"C[C@H](O)c1nccn1Cc1cc(-c2ccc(C#Cc3ccc(NC4CCOCC4)cc3)cc2)on1 [US20240382465, Example 66]",67.9
